Reference: ChEMBL document CHEMBL3352057, “Novel fluorinated pyrrolo[1,2-a]pyrazine-2,6-dione derivatives: synthesis and anticonvulsant evaluation in animal models of epilepsy” (Bioorg Med Chem, 2014)
Active and inactive are the calls of the source. The rule behind the calls is not given here.

Experiments:
[1] = test system: Mus musculus; assay: Neurotoxicity in albino CF1 mouse at 100 mg/kg, ip measured after 0.25 hr; assay type: toxicity, organism-based; set-up: dose 100 mg/kg, route intraperitoneal; settings: in vivo
[2] = test system: Mus musculus; assay: Neurotoxicity in albino CF1 mouse at 100 mg/kg, ip measured after 4 hrs; assay type: toxicity, organism-based; set-up: dose 100 mg/kg, route intraperitoneal; settings: in vivo
[3] = test system: Rattus norvegicus; assay: Anticonvulsant activity in Sprague-Dawley rat assessed as protection against maximal electroshock-induced seizures at 30 mg/kg, ip measured after 1 hr; assay type: functional, organism-based; set-up: dose 30 mg/kg
[4] = test system: Rattus norvegicus; assay: Neurotoxicity in MES Sprague-Dawley rat model at 30 mg/kg, po measured after 1 hr; assay type: toxicity, organism-based; set-up: dose 30 mg/kg, route oral; settings: in vivo
[5] = test system: Rattus norvegicus; assay: Anticonvulsant activity in Sprague-Dawley rat assessed as protection against maximal electroshock-induced seizures at 30 mg/kg, po measured after 0.5 hr; assay type: functional, organism-based; set-up: dose 30 mg/kg
[6] = test system: Mus musculus; assay: Anticonvulsant activity in albino CF1 mouse assessed as protection against maximal electroshock-induced seizures at 100 mg/kg, ip measured after 0.5 hr; assay type: functional, organism-based; set-up: dose 100 mg/kg
[7] = test system: Rattus norvegicus; assay: Anticonvulsant activity in Sprague-Dawley rat assessed as protection against maximal electroshock-induced seizures at 30 mg/kg, ip measured after 0.5 hr; assay type: functional, organism-based; set-up: dose 30 mg/kg
[8] = test system: Rattus norvegicus; assay: Anticonvulsant activity in Sprague-Dawley rat assessed as protection against maximal electroshock-induced seizures at 30 mg/kg, po measured after 4 hrs; assay type: functional, organism-based; set-up: dose 30 mg/kg
[9] = test system: Rattus norvegicus; assay: Anticonvulsant activity in Sprague-Dawley rat assessed as protection against maximal electroshock-induced seizures at 30 mg/kg, po measured after 0.25 hr; assay type: functional, organism-based; set-up: dose 30 mg/kg
[10] = test system: Rattus norvegicus; assay: Anticonvulsant activity in Sprague-Dawley rat assessed as protection against maximal electroshock-induced seizures at 30 mg/kg, po measured after 2 hrs; assay type: functional, organism-based; set-up: dose 30 mg/kg
[11] = test system: Rattus norvegicus; assay: Neurotoxicity in MES Sprague-Dawley rat model at 30 mg/kg, ip measured after 0.5 hr; assay type: toxicity, organism-based; set-up: dose 30 mg/kg, route intraperitoneal; settings: in vivo
[12] = test system: Rattus norvegicus; assay: Anticonvulsant activity in Sprague-Dawley rat assessed as protection against maximal electroshock-induced seizures at 30 mg/kg, ip measured after 2 hrs; assay type: functional, organism-based; set-up: dose 30 mg/kg
[13] = test system: Rattus norvegicus; assay: Neurotoxicity in MES Sprague-Dawley rat model at 30 mg/kg, po measured after 4 hrs; assay type: toxicity, organism-based; set-up: dose 30 mg/kg, route oral; settings: in vivo
[14] = test system: Rattus norvegicus; assay: Neurotoxicity in MES Sprague-Dawley rat model at 30 mg/kg, ip measured after 4 hrs; assay type: toxicity, organism-based; set-up: dose 30 mg/kg, route intraperitoneal; settings: in vivo
[15] = test system: Mus musculus; assay: Neurotoxicity in albino CF1 mouse at 100 mg/kg, ip measured after 0.5 hr; assay type: toxicity, organism-based; set-up: dose 100 mg/kg, route intraperitoneal; settings: in vivo
[16] = test system: Rattus norvegicus; assay: Neurotoxicity in MES Sprague-Dawley rat model at 30 mg/kg, ip measured after 0.25 hr; assay type: toxicity, organism-based; set-up: dose 30 mg/kg, route intraperitoneal; settings: in vivo
[17] = test system: Rattus norvegicus; assay: Neurotoxicity in MES Sprague-Dawley rat model at 30 mg/kg, po measured after 0.5 hr; assay type: toxicity, organism-based; set-up: dose 30 mg/kg, route oral; settings: in vivo
[18] = test system: Rattus norvegicus; assay: Anticonvulsant activity in Sprague-Dawley rat assessed as protection against maximal electroshock-induced seizures at 30 mg/kg, po measured after 1 hr; assay type: functional, organism-based; set-up: dose 30 mg/kg
[19] = test system: Mus musculus; assay: Anticonvulsant activity in albino CF1 mouse assessed as protection against maximal electroshock-induced seizures at 100 mg/kg, ip measured after 0.25 hr; assay type: functional, organism-based; set-up: dose 100 mg/kg
[20] = test system: Rattus norvegicus; assay: Neurotoxicity in MES Sprague-Dawley rat model at 30 mg/kg, ip measured after 1 hr; assay type: toxicity, organism-based; set-up: dose 30 mg/kg, route intraperitoneal; settings: in vivo
[21] = test system: Rattus norvegicus; assay: Neurotoxicity in MES Sprague-Dawley rat model at 30 mg/kg, po measured after 2 hrs; assay type: toxicity, organism-based; set-up: dose 30 mg/kg, route oral; settings: in vivo
[22] = test system: Mus musculus; assay: Anticonvulsant activity in albino CF1 mouse assessed as protection against subcutaneous metrazol-induced seizures at 100 mg/kg, ip measured after 0.25 hr; assay type: functional, organism-based; set-up: dose 100 mg/kg
[23] = test system: Mus musculus; assay: Neurotoxicity in albino CF1 mouse at 100 mg/kg, ip measured after 1 hr; assay type: toxicity, organism-based; set-up: dose 100 mg/kg, route intraperitoneal; settings: in vivo
[24] = test system: Rattus norvegicus; assay: Anticonvulsant activity in Sprague-Dawley rat assessed as protection against maximal electroshock-induced seizures at 30 mg/kg, ip measured after 0.25 hr; assay type: functional, organism-based; set-up: dose 30 mg/kg
[25] = test system: Rattus norvegicus; assay: Anticonvulsant activity in Sprague-Dawley rat assessed as protection against maximal electroshock-induced seizures at 30 mg/kg, ip measured after 4 hrs; assay type: functional, organism-based; set-up: dose 30 mg/kg
[26] = test system: Rattus norvegicus; assay: Neurotoxicity in MES Sprague-Dawley rat model at 30 mg/kg, po measured after 0.25 hr; assay type: toxicity, organism-based; set-up: dose 30 mg/kg, route oral; settings: in vivo
[27] = test system: Rattus norvegicus; assay: Neurotoxicity in MES Sprague-Dawley rat model at 30 mg/kg, ip measured after 2 hrs; assay type: toxicity, organism-based; set-up: dose 30 mg/kg, route intraperitoneal; settings: in vivo
[28] = test system: Mus musculus; assay: Anticonvulsant activity in albino CF1 mouse assessed as protection against maximal electroshock-induced seizures at 100 mg/kg, ip measured after 4 hrs; assay type: functional, organism-based; set-up: dose 100 mg/kg
[29] = test system: Mus musculus; assay: Anticonvulsant activity in albino CF1 mouse assessed as protection against subcutaneous metrazol-induced seizures at 100 mg/kg, ip measured after 4 hrs; assay type: functional, organism-based; set-up: dose 100 mg/kg
[30] = test system: Mus musculus; assay: Anticonvulsant activity in albino CF1 mouse assessed as protection against subcutaneous metrazol-induced seizures at 100 mg/kg, ip measured after 1 hr; assay type: functional, organism-based; set-up: dose 100 mg/kg
[31] = test system: Mus musculus; assay: Anticonvulsant activity in albino CF1 mouse assessed as protection against subcutaneous metrazol-induced seizures at 100 mg/kg, ip measured after 0.5 hr; assay type: functional, organism-based; set-up: dose 100 mg/kg
[32] = test system: Mus musculus; assay: Anticonvulsant activity in albino CF1 mouse assessed as protection against maximal electroshock-induced seizures at 100 mg/kg, ip measured after 1 hr; assay type: functional, organism-based; set-up: dose 100 mg/kg
[33] = test system: Mus musculus; assay: Anticonvulsant activity in albino CF1 mouse assessed as protection against 32 mA current-induced seizures at 100 mg/kg, ip measured after 1 hr; assay type: functional, organism-based; set-up: dose 100 mg/kg
[34] = test system: Mus musculus; assay: Neurotoxicity in 32 mA current-induced seizure albino CF1 mouse model at 100 mg/kg, ip measured after 0.25 hr; assay type: toxicity, organism-based; set-up: dose 100 mg/kg, route intraperitoneal; settings: in vivo
[35] = test system: Mus musculus; assay: Neurotoxicity in 32 mA current-induced seizure albino CF1 mouse model at 100 mg/kg, ip measured after 1 hr; assay type: toxicity, organism-based; set-up: dose 100 mg/kg, route intraperitoneal; settings: in vivo
[36] = test system: Mus musculus; assay: Anticonvulsant activity in albino CF1 mouse assessed as protection against 32 mA current-induced seizures at 100 mg/kg, ip measured after 0.5 hr; assay type: functional, organism-based; set-up: dose 100 mg/kg
[37] = test system: Mus musculus; assay: Anticonvulsant activity in albino CF1 mouse assessed as protection against 32 mA current-induced seizures at 100 mg/kg, ip measured after 2 hrs; assay type: functional, organism-based; set-up: dose 100 mg/kg
[38] = test system: Mus musculus; assay: Anticonvulsant activity in albino CF1 mouse assessed as protection against 32 mA current-induced seizures at 100 mg/kg, ip measured after 4 hrs; assay type: functional, organism-based; set-up: dose 100 mg/kg
[39] = test system: Mus musculus; assay: Neurotoxicity in 32 mA current-induced seizure albino CF1 mouse model at 100 mg/kg, ip measured after 0.5 hr; assay type: toxicity, organism-based; set-up: dose 100 mg/kg, route intraperitoneal; settings: in vivo
[40] = test system: Mus musculus; assay: Anticonvulsant activity in albino CF1 mouse assessed as protection against 32 mA current-induced seizures at 100 mg/kg, ip measured after 0.25 hr; assay type: functional, organism-based; set-up: dose 100 mg/kg
[41] = test system: Mus musculus; assay: Neurotoxicity in 32 mA current-induced seizure albino CF1 mouse model at 100 mg/kg, ip measured after 4 hrs; assay type: toxicity, organism-based; set-up: dose 100 mg/kg, route intraperitoneal; settings: in vivo
[42] = test system: Mus musculus; assay: Neurotoxicity in 32 mA current-induced seizure albino CF1 mouse model at 100 mg/kg, ip measured after 2 hrs; assay type: toxicity, organism-based; set-up: dose 100 mg/kg, route intraperitoneal; settings: in vivo

SMILES	Activity [1]	Activity [2]	Activity [3]	Activity [6]	Activity [7]	Activity [11]	Activity [12]	Activity [14]	Activity [15]	Activity [16]	Activity [19]	Activity [20]	Activity [22]	Activity [23]	Activity [24]	Activity [25]	Activity [27]	Activity [28]	Activity [29]	Activity [30]	also measured
O=C1NC(=O)[C@@H]2CCCN2[C@H]1c1ccccc1F	Toxic	Non-toxic	inactive	Active	inactive	Non-toxic	inactive	Non-toxic	Non-toxic	Non-toxic	inactive	Non-toxic	Active	Non-toxic	inactive	inactive	Non-toxic	inactive	inactive	inactive	Activity [4]: Non-toxic; Activity [5]: inactive; Activity [8]: inactive; Activity [9]: inactive; Activity [10]: inactive; Activity [13]: Non-toxic; Activity [17]: Non-toxic; Activity [18]: inactive; Activity [21]: Non-toxic; Activity [26]: Non-toxic; Activity [31]: inactive; Activity [32]: inactive
O=C1NC(=O)[C@@H]2CCCN2[C@H]1c1ccc(C(F)(F)F)cc1	Non-toxic	Non-toxic	inactive	inactive	inactive	Non-toxic	inactive	Non-toxic	Non-toxic	Non-toxic	Active	Non-toxic	Active	Non-toxic	inactive	inactive	Non-toxic	inactive	inactive	inactive	Activity [33]: inactive; Activity [34]: Non-toxic; Activity [35]: Non-toxic; Activity [36]: Active; Activity [37]: inactive; Activity [38]: inactive; Activity [39]: Non-toxic; Activity [40]: inactive; Activity [41]: Non-toxic; Activity [31]: Active; Activity [42]: Non-toxic; Activity [32]: Active
